Measurements taken from the CheMixHub viscosity set.
± gives the uncertainty stated by the source.

Experiment: xn = mol fraction of the nth substance listed

CCCCC(=O)OCC + CCCCCO
viscosity [mPa·s], 101.33 kPa
Conditions	x1 = 0.1037	x1 = 0.1921	x1 = 0.3001	x1 = 0.4089	x1 = 0.5015	x1 = 0.6062	x1 = 0.7081	x1 = 0.8013	x1 = 0.9029
293.15 K	3.302 ± 0.044	2.761 ± 0.038	2.241 ± 0.033	1.841 ± 0.029	1.575 ± 0.026	1.34 ± 0.024	1.163 ± 0.022	1.036 ± 0.02	0.927 ± 0.019
303.15 K	2.379 ± 0.034	2.008 ± 0.03	1.651 ± 0.027	1.377 ± 0.024	1.195 ± 0.022	1.033 ± 0.02	0.912 ± 0.019	0.825 ± 0.018	0.749 ± 0.018
313.15 K	1.887 ± 0.029	1.61 ± 0.026	1.344 ± 0.024	1.139 ± 0.022	1.004 ± 0.02	0.884 ± 0.019	0.793 ± 0.018	0.728 ± 0.017	0.672 ± 0.017

CC(C)=CC(=O)C=C(C)C + CCCCCOC(C)=O
298.15 K, 101 kPa
Conditions	viscosity [mPa·s]
x1 = 0.078	0.813 ± 0.01
x1 = 0.142	0.834 ± 0.01

CCCCC + CCCCCl
298 K, 101.3 kPa
Conditions	viscosity [mPa·s]
x1 = 0.1016	0.4004 ± 0.011
x1 = 0.2097	0.372 ± 0.01
x1 = 0.2358	0.3641 ± 0.0098
x1 = 0.403	0.3274 ± 0.0088
x1 = 0.5062	0.3054 ± 0.0083
x1 = 0.6042	0.287 ± 0.0078
x1 = 0.7007	0.2701 ± 0.0073
x1 = 0.7975	0.2558 ± 0.007
x1 = 0.8963	0.2391 ± 0.0065

CC(=O)O.NCCO + CCCCO
298.15 K, 101.3 kPa
Conditions	viscosity [mPa·s]
x2 = 0.088	1548
x2 = 0.179	734.1
x2 = 0.272	460.3
x2 = 0.369	325.3
x2 = 0.476	190.3
x2 = 0.574	74.63
x2 = 0.666	30.51
x2 = 0.776	19.04
x2 = 0.881	14.02

CCCCC + CCCCO
298.15 K, 101 kPa
Conditions	viscosity [mPa·s]
x2 = 0.1233	0.258 ± 0.003
x2 = 0.2435	0.319 ± 0.004
x2 = 0.4175	0.481 ± 0.005
x2 = 0.4935	0.609 ± 0.006
x2 = 0.5883	0.809 ± 0.008
x2 = 0.6892	1.042 ± 0.01
x2 = 0.7941	1.44 ± 0.014
x2 = 0.869	1.832 ± 0.017

CCCCCCCCn1cc[n+](C)c1.O=[N+]([O-])[O-] + CCCCO
Conditions	viscosity [mPa·s]
293.15 K, 101 kPa, x2 = 0.168	378.7 ± 100

CCCCCCCO + CCCCO
viscosity [mPa·s], 101 kPa
Conditions	298.15 K	308.15 K	318.15 K
x2 = 0.08	5.586 ± 0.054	4.11 ± 0.039	3.063 ± 0.029
x2 = 0.15	5.398 ± 0.052	3.965 ± 0.037	2.971 ± 0.028
x2 = 0.22	5.211 ± 0.05	3.829 ± 0.036	2.883 ± 0.026
x2 = 0.28	5.027 ± 0.048	3.7 ± 0.035	2.798 ± 0.026
x2 = 0.34	4.844 ± 0.046	3.576 ± 0.033	2.714 ± 0.025
x2 = 0.4	4.664 ± 0.044	3.456 ± 0.032	2.632 ± 0.024
x2 = 0.46	4.487 ± 0.042	3.34 ± 0.031	2.551 ± 0.023
x2 = 0.51	4.313 ± 0.041	3.226 ± 0.03	2.47 ± 0.022
x2 = 0.56	4.142 ± 0.039	3.115 ± 0.029	2.391 ± 0.022
x2 = 0.61	3.976 ± 0.037	3.004 ± 0.027	2.312 ± 0.021
x2 = 0.66	3.813 ± 0.035	2.894 ± 0.026	2.233 ± 0.02
x2 = 0.7	3.654 ± 0.034	2.785 ± 0.025	2.155 ± 0.019
x2 = 0.74	3.499 ± 0.032	2.677 ± 0.024	2.077 ± 0.019
x2 = 0.79	3.348 ± 0.031	2.57 ± 0.023	2 ± 0.018
x2 = 0.82	3.201 ± 0.029	2.463 ± 0.022	1.923 ± 0.017
x2 = 0.86	3.058 ± 0.028	2.359 ± 0.021	1.847 ± 0.017
x2 = 0.9	2.919 ± 0.026	2.256 ± 0.02	1.772 ± 0.016
x2 = 0.93	2.783 ± 0.025	2.157 ± 0.019	1.698 ± 0.015
x2 = 0.97	2.652 ± 0.024	2.061 ± 0.018	1.627 ± 0.015

CCN(CC)S(C)(=O)=O + CCCCO
303.15 K, 101.33 kPa
Conditions	viscosity [mPa·s]
x1 = 0.0631	20450 ± 2300
x1 = 0.1404	19420 ± 2100
x1 = 0.2197	19180 ± 2100
x1 = 0.2937	19420 ± 2100
x1 = 0.3626	19850 ± 2200
x1 = 0.4515	20780 ± 2300
x1 = 0.5227	21750 ± 2400
x1 = 0.6053	23400 ± 2600
x1 = 0.6908	25500 ± 2900
x1 = 0.7579	27420 ± 3200
x1 = 0.8437	30890 ± 3700
x1 = 0.9281	35520 ± 4400

CS(C)=O + CCCCO
viscosity [mPa·s]
Conditions	298.15 K	303.15 K
101 kPa, x1 = 0.09862	–	1.847 ± 0.015
101 kPa, x1 = 0.1941	–	1.698 ± 0.021
101 kPa, x1 = 0.2035	–	1.685 ± 0.014
101 kPa, x1 = 0.3043	–	1.581 ± 0.013
101 kPa, x1 = 0.3691	–	1.528 ± 0.019
101 kPa, x1 = 0.3883	–	1.55 ± 0.013
101 kPa, x1 = 0.4941	–	1.534 ± 0.013
101 kPa, x1 = 0.5276	–	1.497 ± 0.019
101 kPa, x1 = 0.5875	–	1.564 ± 0.013
101 kPa, x1 = 0.6718	–	1.506 ± 0.019
101 kPa, x1 = 0.6844	–	1.605 ± 0.014
101 kPa, x1 = 0.803	–	1.636 ± 0.014
101 kPa, x1 = 0.8037	–	1.543 ± 0.019
101 kPa, x1 = 0.9005	–	1.682 ± 0.015
101 kPa, x1 = 0.9297	–	1.672 ± 0.021
101.3 kPa, x1 = 0.0944	2.225 ± 0.1	1.97 ± 0.091
101.3 kPa, x1 = 0.192	2.017 ± 0.093	1.848 ± 0.086
101.3 kPa, x1 = 0.2893	1.88 ± 0.087	1.671 ± 0.078
101.3 kPa, x1 = 0.3876	1.78 ± 0.083	1.604 ± 0.075
101.3 kPa, x1 = 0.4688	1.773 ± 0.082	1.59 ± 0.075
101.3 kPa, x1 = 0.5874	1.77 ± 0.082	1.599 ± 0.075
101.3 kPa, x1 = 0.6887	1.796 ± 0.083	1.625 ± 0.076
101.3 kPa, x1 = 0.7915	1.859 ± 0.086	1.668 ± 0.078
101.3 kPa, x1 = 0.8839	1.905 ± 0.088	1.723 ± 0.08

O=C(O)C=Cc1ccccc1 + CCCCO
viscosity [mPa·s]
Conditions	x1 = 0.0728	x1 = 0.0959	x1 = 0.114
308.15 K, 101.33 kPa	2.48 ± 0.066	–	–
313.15 K, 101.33 kPa	2.19 ± 0.058	–	–
318.15 K, 101 kPa	1.932 ± 0.02	2.073 ± 0.021	2.18 ± 0.022
318.15 K, 101.33 kPa	1.932 ± 0.051	2.073 ± 0.055	–
323.15 K, 101.33 kPa	1.712 ± 0.045	1.838 ± 0.049	–

CCCCCCCCn1cc[n+](C)c1.O=[N+]([O-])[O-] + CCCO
101 kPa
Conditions	viscosity [mPa·s]
293.15 K, x2 = 0.107	510.9 ± 160
298.15 K, x2 = 0.258	191.5 ± 35
